For one test, the system named is 22RV1 cells. As to the kind of experiment: Cell growth inhibition of 22RV1 cells (CellTiter-Glo). The format is cell-based. The following applies: Homo sapiens, 22Rv1, 120 h, 5 days, CellTiter-Glo, read-out: 22RV1 Cell Growh GI50. On the procedure:
For cell growth assay, 22RV1 (ATCC, CRL-2505) cells were seeded in 96-well plates at 1000 cells/well in 90 μl of RPMI1640 growth medium containing 20% FBS and 1% Penicillin Streptomycin, and then incubated at 37° C. overnight. The following day, the test compound was administered to the cells by using 1000× compound stock solution prepared in DMSO at various concentrations. 1000× compound stock solution was first diluted in culturing medium to 10×, then 10 uL compound medium was added to each well in the cell plates. After administration of the compound, the cells were then incubated at 37° C. for 5 days. Upon completion, the plates were equilibrated at room temperature for approximately 10 min. 100 μl of CellTiter-Glo® Reagent (Promega) was added to each well. The plates were then incubated at room temperature for 10 min and luminescence was recorded by EnSpire plate reader (PerkinElmer).
22RV1 cells were obtained from American Type Culture Collection (ATCC, CRL-2505). 22RV1 cells were seeded in 96-well plates at 1000 cells/well in 90 μL of RPMI1640 growth medium containing 10% FBS and 1% Penicillin Streptomycin, and then incubated at 37° C. overnight. The following day, the test compound was administered to the cells by using 1000× compound stock solution prepared in DMSO at various concentrations. […], then 10 uL compound medium was added to each well in the cell plates. After administration of the compound, the cells were then incubated at […] for 5 days. Upon completion, the plates were equilibrated at room temperature for approximately 10 minutes. 100 μL of CellTiter-Glo® Reagent (Promega) was added to each well. The plates were then incubated at room temperature for 10 minutes and luminescence was recorded by EnSpire plate reader (PerkinElmer).
On the technique in general: Cellular ATP, detected with luciferase, serves as a proxy for viable cell number.

Test [1] concerns Phospho-Rb (Ser807/811) in MCF7 cells. As to the kind of experiment: Phospho-Rb expression inhibition in MCF7 cells quantified by in cell Western. The class given is cell-based, human. Particulars: Homo sapiens, MCF7, 24 h, 24 hours, in cell Western, read-out: MCF7 pRb IC50. As to the method:
MCF7 cells were obtained from American Type Culture Collection (ATCC, HTB-22). MCF7 cells were plated in 96-well plates (VWR #10062-900, or Coming #3904) in 90 μL culture medium at a density of 20,000 cells/well in the DMEM growth medium containing 10%/FBS and 1% Penicillin Streptomycin, and then incubated at 37° C. overnight. The following day, the test compound was administered to the cells by using 1000× compound stock solution prepared in DMSO at various concentrations. 1000× compound stock solution was first diluted in culturing medium to 10×, then 10 μL compound medium was added to each well in the cell plates. After administration of the compound, the cells were then incubated at 37° C. for 24 h. Upon completion, the cells were washed with PBS briefly. 150 μL/well of 4% formaldehyde was added and the plates were incubated at room temperature for 20 min. The cells were washed with PBS briefly, and permeabilized with 150 µL/well of ice cold 100% methanol for 10 min. The cells were washed with PBS briefly and blocked with 100 µL/well LI-COR blocking buffer for 1 h at room temperature with gentle shaking. The cells were incubated overnight at 4° C. with 50 μL primary antibody rabbit anti-Phospho-Rb (Ser807/811) (1: 500, Cell Signaling, #8516) and anti-Rb (1:200, Santa Cruz, sc-73598) diluted in Intercept Blocking Buffer (LI-COR, #927-60001) containing 0.1% Tween 20. The next day, the cells were washed with 200 μL PBS containing 0.1% Tween 20, 5×5 mins at room temperature with gentle shaking, and incubated with 50 μL secondary antibody, IRDye® 800CW Goat anti-Rabbit IgG (1:1000, LI-COR, #926-32211) and FRDye® 680RD Goat anti-Mouse IgG (1:1000, LI-COR, #926-68070), in LI-COR […] blocking buffer with 0.2% Tween 20 for 1 h at room temperature with gentle shaking. The cells were washed with 200 μL PBS containing 0.1% Tween 20, 5×5 min at room temperature with gentle shaking. The cells were washed with PBS for 5 mins. 100 μL fresh PBS was added to each well and the plates were imaged on a LI-COR Odyssey CLX plate reader.
MCF7 cells were obtained from American Type Culture Collection (ATCC, HTB-22). SW1573-CDK6 KO and SW1573-CDK4 KO cells were generated by the CRISPR-Cas9 technology. All cells were plated in 96-well plates (VWR #10062-900, or Corning #3904) in 90 uL culture medium at a density of 20,000 cells/well in the respective growth medium containing 10% FBS and 1% Penicillin Streptomycin, and then incubated at 37° C. overnight. The following day, the test compound was administered to the cells by using 1000× compound stock solution prepared in DMSO at various concentrations. 1000× compound stock solution was first diluted in culturing medium to 10×, then 10 uL compound medium was added to each well in the cell plates. After administration of the compound, the cells were then incubated at 37° C. for 24 hours. Upon completion, the cells were washed with PBS briefly. 150 uL/well of 4% formaldehyde was added and the plates were incubated at room temperature for 20 mins. The cells were washed with PBS briefly, and permeabilized with 150 uL/well of ice cold 100% methanol for 10 mins. The cells were washed with PBS briefly and blocked with 100 uL/well LI-COR blocking buffer for 1 hr at room temperature with gentle shaking. The cells were incubated overnight at 4° C. with 50 uL primary antibody rabbit anti-Phospho-Rb (Ser807/811) (1: 500, Cell Signaling, #8516) and anti-Rb (1:200, Santa Cruz, sc-73598) diluted in Intercept Blocking Buffer (LI-COR, #927-60001) containing 0.1% Tween 20. The next day, the cells were washed with 200 uL PBS containing 0.1% Tween 20, 5×5 mins at room temperature with gentle shaking, and incubated with 50 uL secondary antibody, IRDye® 800CW Goat anti-Rabbit IgG (1:1000, LI-COR, #926-32211) and IRDye®680RD Goat anti-Mouse IgG (1:1000, LI-COR, #926-68070), in LI-COR blocking buffer with 0.2% Tween 20 for 1 hr at room temperature with gentle shaking. […]

Each structure is given as a SMILES string.

A word on the GI50: it is the concentration at which growth is held to half of that of the control. `[2H][C@H]1[C@@H](Nc2ncc(Cl)c(-c3cc(F)c4nc(C(C)(C)O)n(C(C)C)c4c3)n2)[C@H](O)[C@@H]2OC[C@H]1O2` [Compound 2, (1S,2S,3R,4S,5R)-3-((5-chloro-4-(4-fluoro-2-(2-hydroxypropan-2-yl)-1-isopropyl-1H-benzo[d]imidazol-6-yl)pyrimidin-2-yl)amino)-6,8-dioxabicyclo[3.2.1]octan-2-d-4-ol]: in the test on 22RV1 cells, the GI50 is no more than 120 nM.
A word on the IC50: it is the concentration needed to halve the response being measured. For the compound `COC(=O)N1CC[C@@H](c2nc3c(F)cc(-c4nc(N[C@@H]5C[C@H]6CO[C@H](O6)[C@H]5O)ncc4Cl)cc3n2C(C)C)C1` [Compound 4, methyl (R)-3-(6-(5-chloro-2-(((1S,3R,4S,5R)-4-hydroxy-6,8-dioxabicyclo[3.2.1]octan-3-yl)amino)pyrimidin-4-yl)-4-fluoro-1-isopropyl-1H-benzo[d]imidazol-2-yl)pyrrolidine-1-carboxylate], the IC50 in test [1] lay in the range of 40 to 150 nM. For the same compound, in the test with 22RV1 cells, the GI50 was in the range of 120 to 450 nM.
For `CC(C)n1c([C@@H]2CCC(F)(F)C2)nc2c(F)cc(-c3nc(N[C@@H]4C[C@H]5CO[C@H](O5)[C@H]4O)ncc3Cl)cc21` [Compound 5, (1S,3R,4S,5R)-3-((5-chloro-4-(2-((R)-3,3-difluorocyclopentyl)-4-fluoro-1-isopropyl-1H-benzo[d]imidazol-6-yl)pyrimidin-2-yl)amino)-6,8-dioxabicyclo[3.2.1]octan-4-ol], the IC50 in test [1] is 150 to 1000 nM. The GI50 in the test with 22RV1 cells is 120 to 450 nM.
As for `CC(C)n1c(C(C)(C)O)nc2c(F)cc(-c3nc(N[C@@H]4[C@H](C)[C@H]5CO[C@H](O5)[C@H]4O)ncc3Cl)cc21` [Compound 13, (1S,2S,3R,4S,5R)-3-((5-chloro-4-(4-fluoro-2-(2-hydroxypropan-2-yl)-1-isopropyl-1H-benzo[d]imidazol-6-yl)pyrimidin-2-yl)amino)-2-methyl-6,8-dioxabicyclo[3.2.1]octan-4-ol], the IC50 in test [1] lay within 40 to 150 nM. Besides, the GI50 in the test on 22RV1 cells fell in the range of 120 to 450 nM.
For the compound `COC(=O)N1CC[C@@H](c2nc3c(F)cc(-c4nc(N[C@@H]5[C@H](C)[C@H]6CO[C@H](O6)[C@H]5O)ncc4Cl)cc3n2C(C)C)C1` [Compound 23, methyl (R)-3-(6-(5-chloro-2-(((1S,2S,3R,4S,5R)-4-hydroxy-2-methyl-6,8-dioxabicyclo[3.2.1]octan-3-yl)amino)pyrimidin-4-yl)-4-fluoro-1-isopropyl-1H-benzo[d]imidazol-2-yl)pyrrolidine-1-carboxylate], the IC50 in test [1] was 40 to 150 nM. For the same compound, the GI50 in the test on 22RV1 cells was in the range of 120 to 450 nM.
For the compound `CC(C)n1c(C(C)(C)O)c(C#N)c2c(F)cc(-c3nc(N[C@@H]4C[C@H]5CO[C@H](O5)[C@H]4O)ncc3Cl)cc21` [Compound 26, 6-(5-chloro-2-(((1S,3R,4S,5R)-4-hydroxy-6,8-dioxabicyclo[3.2.1]octan-3-yl)amino)pyrimidin-4-yl)-4-fluoro-2-(2-hydroxypropan-2-yl)-1-isopropyl-1H-indole-3-carbonitrile], the IC50 in test [1] was 40 to 150 nM. For the same compound, in the test with 22RV1 cells, the GI50 was no more than 120 nM.
The corresponding values for `CC(C)n1c(C(C)(C)O)nc2c(F)cc(-c3nc(N[C@@H]4C[C@H]5CO[C@H](O5)[C@H]4O)ncc3F)cc21` [Compound 27, (1S,3R,4S,5R)-3-((5-fluoro-4-(4-fluoro-2-(2-hydroxypropan-2-yl)-1-isopropyl-1H-benzo[d]imidazol-6-yl)pyrimidin-2-yl)amino)-6,8-dioxabicyclo[3.2.1]octan-4-ol] are 40 to 150 nM and 120 to 450 nM.
As for `CC(C)n1c(C(C)(C)O)nc2c(F)cc(-c3nc(N[C@@H]4C[C@H]5CO[C@H](O5)[C@H]4O)ncc3C(F)F)cc21` [Compound 29, (1S,3R,4S,5R)-3-((5-(difluoromethyl)-4-(4-fluoro-2-(2-hydroxypropan-2-yl)-1-isopropyl-1H-benzo[d]imidazol-6-yl)pyrimidin-2-yl)amino)-6,8-dioxabicyclo[3.2.1]octan-4-ol], the 50% inhibitory concentration (IC50) in test [1] is 150 to 1000 nM. The GI50 in the test with 22RV1 cells fell in the range of 450 to 3000 nM.
The corresponding values for `CC1=Nc2c(F)cc(-c3nc(N[C@@H]4C[C@H]5CO[C@H](O5)[C@H]4O)ncc3Cl)cc2C12CCCC2` [Compound 32, (1S,3R,4S,5R)-3-((5-chloro-4-(7′-fluoro-2′-methylspiro[cyclopentane-1,3′-indol]-5′-yl)pyrimidin-2-yl)amino)-6,8-dioxabicyclo[3.2.1]octan-4-ol] are no more than 40 nM and no more than 120 nM.
The corresponding values for `CC(C)(O)C1=Nc2c(F)cc(-c3nc(N[C@@H]4C[C@H]5CO[C@H](O5)[C@H]4O)ncc3Cl)cc2C12CCCC2` [Compound 33, (1S,3R,4S,5R)-3-((5-chloro-4-(7′-fluoro-2′-(2-hydroxypropan-2-yl)spiro[cyclopentane-1,3′-indol]-5′-yl)pyrimidin-2-yl)amino)-6,8-dioxabicyclo[3.2.1]octan-4-ol] are 40 to 150 nM and 120 to 450 nM.
On to `C[C@H]1COc2c(-c3nc(N[C@@H]4C[C@H]5CO[C@H](O5)[C@H]4O)ncc3Cl)cc(F)c3nc(C(C)(C)O)n1c23` [Compound 37, (1S,3R,4S,5R)-3-((5-chloro-4-((S)-8-fluoro-2-(2-hydroxypropan-2-yl)-3-methyl-3,4-dihydro-5-oxa-1,2a-diazaacenaphthylen-6-yl)pyrimidin-2-yl)amino)-6,8-dioxabicyclo[3.2.1]octan-4-ol], for which the IC50 in test [1] was in the range of 40 to 150 nM. Further, the GI50 with 22RV1 cells is 120 to 450 nM.
With `C[C@@H]1COc2c(-c3nc(N[C@@H]4C[C@H]5CO[C@H](O5)[C@H]4O)ncc3Cl)cc(F)c3nc(C(C)(C)O)n1c23` [Compound 38, (1S,3R,4S,5R)-3-((5-chloro-4-((R)-8-fluoro-2-(2-hydroxypropan-2-yl)-3-methyl-3,4-dihydro-5-oxa-1,2a-diazaacenaphthylen-6-yl)pyrimidin-2-yl)amino)-6,8-dioxabicyclo[3.2.1]octan-4-ol], the IC50 in test [1] was no more than 40 nM. In addition, the GI50 in the test with 22RV1 cells lay within 120 to 450 nM.

Source of the values: patent US20250084095A1, “Aminopyrimidine Derivatives as Cyclin-Dependent Kinase Inhibitors” (Accutar Biotechnology Inc., priority 2023, published 2025).
